Reference: PMC6422167 (ChemMedChem, 2018)
Read-outs that look alike come from different tables or passages of the source.

How the values were obtained:
σ1 receptor [1] = target: T1, σ1 receptor (Cavia porcellus, UniProt Q60492); experiment: σ1 receptor binding affinity, competition against; parameters: species or system guinea pig; settings: for Selectivity ratio VAChT/ σ1: ratio of Ki values, Table 2; for Ki: read-out: Ki σ1, homogenate of guinea pig brain, tested as oxalate, mean ± SD
σ2 receptor [2] = target: T2, σ2 receptor (Rattus norvegicus, UniProt Q5U3Y7); experiment: σ2 receptor binding affinity, competition against [3H]DTG; settings: for Selectivity ratio VAChT/ σ2: ratio of Ki values, Table 2; for Ki: read-out: Ki σ2, homogenate of rat liver, tested as oxalate, mean ± SD
T2 sequence (Q5U3Y7 1-176): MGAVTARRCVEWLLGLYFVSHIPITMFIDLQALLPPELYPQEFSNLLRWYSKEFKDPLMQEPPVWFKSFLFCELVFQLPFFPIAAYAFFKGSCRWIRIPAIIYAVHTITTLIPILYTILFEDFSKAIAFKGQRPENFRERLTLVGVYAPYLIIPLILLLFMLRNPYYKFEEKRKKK

human VAChT = target: T3, human VAChT (Homo sapiens, UniProt Q16572); settings: read-out: Ki VAChT; reference ligand; cited from earlier work
T3 sequence (Q16572 1-532): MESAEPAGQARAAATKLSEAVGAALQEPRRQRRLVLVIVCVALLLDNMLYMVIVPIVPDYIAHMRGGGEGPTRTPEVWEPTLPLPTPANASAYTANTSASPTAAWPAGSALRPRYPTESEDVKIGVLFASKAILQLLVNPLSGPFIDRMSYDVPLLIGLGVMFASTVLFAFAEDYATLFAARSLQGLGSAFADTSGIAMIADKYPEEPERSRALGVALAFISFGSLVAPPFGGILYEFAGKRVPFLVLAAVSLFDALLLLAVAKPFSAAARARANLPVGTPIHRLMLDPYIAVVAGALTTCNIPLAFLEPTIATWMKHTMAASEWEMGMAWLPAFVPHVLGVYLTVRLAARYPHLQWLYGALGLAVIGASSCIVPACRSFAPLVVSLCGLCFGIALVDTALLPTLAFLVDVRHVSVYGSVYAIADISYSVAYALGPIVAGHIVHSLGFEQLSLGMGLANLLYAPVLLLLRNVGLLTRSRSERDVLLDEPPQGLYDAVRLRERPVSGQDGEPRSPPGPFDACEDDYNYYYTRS

σ1 receptor [3] = target: T1, σ1 receptor; settings: read-out: Ki σ1, cited from earlier work
σ2 receptor [4] = target: T2, σ2 receptor; settings: read-out: Ki σ2; reference σ1 ligand; cited from earlier work

T1 sequence (Q60492 whole entry): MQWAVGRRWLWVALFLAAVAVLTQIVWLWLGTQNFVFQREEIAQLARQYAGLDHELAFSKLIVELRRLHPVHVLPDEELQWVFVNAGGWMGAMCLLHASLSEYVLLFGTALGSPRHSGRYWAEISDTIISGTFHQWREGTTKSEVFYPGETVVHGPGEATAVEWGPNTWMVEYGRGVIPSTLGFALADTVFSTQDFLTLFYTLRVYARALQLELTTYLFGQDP

| Selectivity ratio VAChT/ σ1 (σ1 receptor [1]) | Ki (σ1 receptor [1]) | Selectivity ratio VAChT/ σ2 (σ2 receptor [2]) | Ki (σ2 receptor [2]) | Compound | Ki (human VAChT) | Ki (σ1 receptor [3]; reference ligand) | Ki (σ2 receptor [4]) | Ki (σ1 receptor [3]; reference σ1 ligand) |
| --- | --- | --- | --- | --- | --- | --- | --- | --- |
| 7.2 | 0.0172 ± 0.004 µM | > 420 | > 1 µM | CSc1ccc(C(=O)C2CCN(C3Cc4ccccc4CC3O)CC2)cc1 (racemic) [(±)-8, (±)-(1-(3-Hydroxy-1,2,3,4-tetrahydronaphthalen-2-yl)piperidin-4-yl)(4-(methylthio)phenyl)methanone] | – | – | – | – |
| 7.0 | – | > 420 | – | O=C(c1ccc(SCCF)cc1)C1CCN(C2Cc3ccccc3CC2O)CC1 (racemic) [(±)-14a, (±)-(4-((2-Fluoroethyl)thio)phenyl)(1-(3-hydroxy-1,2,3,4-tetrahydronaph-thalen-2-yl)piperidin-4-yl)methanone] | – | – | – | – |
| 17.7 | 0.0408 ± 0.0041 µM | > 430 | > 1 µM | O=C(c1ccc(SCCCF)cc1)C1CCN(C2Cc3ccccc3CC2O)CC1 (racemic) [(±)-14b, (±)-(4-((3-Fluoropropyl)thio)phenyl)(1-(3-hydroxy-1,2,3,4-tetrahydronaph-thalen-2-yl)piperidin-4-yl)methanone] | – | – | – | – |

The next lines start with the compound.

| Compound | Selectivity ratio VAChT/ σ1 (σ1 receptor [1]) | Ki (σ1 receptor [1]) | Selectivity ratio VAChT/ σ2 (σ2 receptor [2]) | Ki (σ2 receptor [2]) | Ki (human VAChT) | Ki (σ1 receptor [3]; reference ligand) | Ki (σ2 receptor [4]) | Ki (σ1 receptor [3]; reference σ1 ligand) |
| --- | --- | --- | --- | --- | --- | --- | --- | --- |
| CS(=O)(=O)c1ccc(C(=O)C2CCN(C3Cc4ccccc4CC3O)CC2)cc1 (racemic) [(±)-7, (±)-(1-(3-Hydroxy-1,2,3,4-tetrahydronaphthalen-2-yl)piperidin-4-yl)(4-(methyl-sulfonyl)phenyl)methanone] | 3.1 | 0.0165 ± 0.0021 µM | > 185 | > 1 µM | – | – | – | – |
| O[C@@H]1Cc2cccc(OCCF)c2C[C@H]1N1CCC(c2ccccc2)CC1 [(-)-FEOBV] | 10.7 | – | – | – | 0.0196 ± 0.0011 µM | 0.209 ± 0.094 µM | – | – |
| O=C(Cc1ccccc1F)NC1CCC(Cc2ccccc2)CC1 (centres unmarked) [YUN-122, N-(4-benzylcyclohexyl)-2-(2-fluorophenyl)acetamide] | – | – | – | – | – | – | 0.667 ± 0.098 µM | 0.0036 ± 0.0011 µM |
| (-)-vesamicol [reference compound] | – | – | – | 0.0345 ± 0.002 µM | – | – | – | – |
